Here are results for three compounds from patent US5459064A, “Protease” (Shionogi & Co., Ltd., priority 1990, dated 1995).

Residues, ends and D or L forms follow the SMILES beside them. *: point of attachment. Cbz = O=C(OCc1ccccc1)*; CH2Cl = ClC*

In test [1] the target is BLase (the present enzyme) (Bacillus licheniformis, UniProt P80057). Put plainly: Effect of inhibitors on the present enzyme. It counts as biochemical, Bacillus licheniformis ATCC No. 14580.
In the next test the test system is oxidized insulin B chain. Put plainly: Cleavage of oxidized insulin B chain, HPLC peptide mapping. It counts as biochemical. The conditions noted are these: 50 mM ammonium bicarbonate pH 7.8, enzyme/substrate 1/100 (W/W).

Sequence of BLase (the present enzyme) (P80057 95-316): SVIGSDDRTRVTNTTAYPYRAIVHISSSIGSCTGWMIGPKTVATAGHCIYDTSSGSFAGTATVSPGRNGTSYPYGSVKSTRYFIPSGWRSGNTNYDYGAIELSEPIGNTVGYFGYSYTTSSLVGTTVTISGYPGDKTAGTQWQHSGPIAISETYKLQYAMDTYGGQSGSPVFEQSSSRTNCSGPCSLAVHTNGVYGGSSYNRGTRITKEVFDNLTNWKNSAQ

As for `O=C(O)CN(CCN(CC(=O)O)CC(=O)O)CC(=O)O` [EDTA], in test [1], the “Inhibition of the present enzyme” value is given as “partially inhibited”, the “Inhibitory effect after addition of metal ions” value is reported as “completely nullified” and the Maximum inhibition ratio entry is recorded as “approximately 72%”. Consider `CC(C)C[C@H](NC(=O)[C@H](Cc1ccccc1)NC(=O)OCc1ccccc1)C(=O)N[C@@H](CCC(=O)O)C(=O)CCl` [Z-Phe Leu Glu CH2 Cl] (Cbz-Phe-Leu-Glu-CH2Cl), for which the “Inhibition of the present enzyme” value in test [1] is “completely inhibited”. Turning to “V8 protease: Serine protease from the V8 strain of Staphylococcus aureus, cleaves at the carboxyl terminal of glutamic acid residues”, the “Action on oxidized insulin B chain (peptide mapping)” value with oxidized insulin B chain is reported as “the peptide bonds at the carboxyl termini of the glutamic acid residues were cleaved”.
